Data: patent US20260183407A1, “DYRK/CLK PROTACS AND USES THEREOF” (Arizona Board of Regents on Behalf of the University of …, priority 2022, published 2026)

Key:
DYRK1B [1] = biological target: T1, DYRK1B (Homo sapiens, UniProt Q9Y463); assay: KdELECT kinase binding assay (Eurofins), DYRK1B; conditions: 11-point 3-fold dilution series, qPCR readout; read-out: Binding Affinity (Kd) DYRK1B
T1 construct: purchased Eurofins; host or cells: E. coli BL21-derived (T7 phage display) or HEK-293

DYRK1A [2] = biological target: T2, DYRK1A (Homo sapiens, UniProt Q13627); assay: KdELECT kinase binding assay (Eurofins), DYRK1A; conditions: 11-point 3-fold dilution series, qPCR readout; read-out: Binding Affinity (Kd) DYRK1A
T2 construct: purchased Eurofins; host or cells: E. coli BL21-derived (T7 phage display) or HEK-293

DYRK1A [3] = biological target: T2, DYRK1A; assay: HiBiT split luciferase assay of targeted degradation of DYRK1A in Flp-In T-REx 293 cells; assay type: cell-based; conditions: 300 nM compound, 24 h, HiBiT-tagged DYRK1A in Flp-In T-REx 293 cells, normalized to vehicle; read-out: Relative Degradation at 300 nM DYRK1A
DYRK1B [4] = biological target: T1, DYRK1B; assay: HiBiT split luciferase assay of targeted degradation of DYRK1B in Flp-In T-REx 293 cells; assay type: cell-based; conditions: 300 nM compound, 24 h, HiBiT-tagged DYRK1B in Flp-In T-REx 293 cells, normalized to vehicle; read-out: Relative Degradation at 300 nM DYRK1B
Description: The Flp-In T-REx 293 Cell Line and the pcDNA5/FRT/TO vector (Invitrogen) were used to generate stable cell clones for tetracyclin-inducible expression of DYRK1A and DYRK1B. These cells contain a single stably integrated Flp recognition target (FRT) site, which allows for site-specific integration of the expression cassette by the Flp (Flippase) recombinase. DYRK1 constructs were designed to contain a C-terminal HiBiT tag for quantitative detection of HiBiT-tagged proteins in cellular lysates with the help a split luciferase assay (Nano-Glo HiBiT Lytic Detection System, Promega). To monitor the targeted degradation of DYRK1A or DYRK1B, cells were seeded in 96-well plates (10,000 cells/per well) and treated with doxycyclineinal concentration 2 μg/ml) to induce DYRK1 expression. Compounds with presumed PROTAC activity were administered 24 h after seeding. After further incubation for 24 h, cells were grossly and microscopically inspected for overt toxicity. Cells were lysed in 100 μL ice-cold passive lysis buffer (PLB, Promega) by orbital shaking (30 min on ice) before lysates were centrifuged in PCR tube (20 min 20,000 g, RT). A 10 μl aliquot of the supernatant was subjected to the HiBiT lytic assay. Luminescence was quantified in an Orion Microplate luminometer (Berthold Detection System, Germany). All compounds were tested in duplicate or triplicate wells (technical replicates) and at least two independent experiments. Relative degradation was calculated by normalization to vehicle-treated control samples.

T1 sequence (Q9Y463 whole entry, species assumed): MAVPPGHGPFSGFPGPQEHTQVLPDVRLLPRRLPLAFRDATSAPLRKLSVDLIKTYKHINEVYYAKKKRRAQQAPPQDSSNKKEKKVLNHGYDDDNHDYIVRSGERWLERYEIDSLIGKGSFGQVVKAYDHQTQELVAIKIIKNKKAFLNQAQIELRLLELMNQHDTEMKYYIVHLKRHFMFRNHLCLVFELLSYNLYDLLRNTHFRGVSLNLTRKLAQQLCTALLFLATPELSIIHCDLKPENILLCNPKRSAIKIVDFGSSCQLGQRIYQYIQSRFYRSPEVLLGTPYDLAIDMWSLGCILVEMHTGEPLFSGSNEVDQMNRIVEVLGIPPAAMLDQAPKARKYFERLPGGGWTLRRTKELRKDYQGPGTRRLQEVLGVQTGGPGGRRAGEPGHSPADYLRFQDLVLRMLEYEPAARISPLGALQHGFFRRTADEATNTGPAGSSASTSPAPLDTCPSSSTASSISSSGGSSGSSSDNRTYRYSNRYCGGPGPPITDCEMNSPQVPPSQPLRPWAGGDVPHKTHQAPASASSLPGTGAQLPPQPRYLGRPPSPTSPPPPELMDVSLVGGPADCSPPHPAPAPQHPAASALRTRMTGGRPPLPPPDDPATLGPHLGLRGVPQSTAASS

Kd (DYRK1B [1])	Kd (DYRK1A [2])	inhibition at 0.3 µM (DYRK1A [3])	inhibition at 0.3 µM (DYRK1B [4])	SMILES
10 to 100 nM	10 to 100 nM	> 60%	< 30%	Cc1nc2ccc(-c3ccnc(N)c3)nc2n1-c1ccc(N2CCN(CC#Cc3ccc(N4CCC(C(=O)N5CCC(n6cc(CNc7cccc8c7C(=O)N(C7CCC(=O)NC7=O)C8=O)cn6)CC5)CC4)nc3)CC2)c(C(F)(F)F)c1 (stereo not shown) [Compound 24, 4-(((1-(1-(1-(5-(3-(4-(4-(5-(2-aminopyridin-4-yl)-2-methyl-3H-imidazo[4,5-b]pyridin-3-yl)-2-(trifluoromethyl)phenyl)piperazin-1-yl)prop-1-yn-1-yl)pyridin-2-yl)piperidine-4-carbonyl)piperidin-4-yl)-1H-pyrazol-4-yl)methyl)amino)-2-(2,6-dioxopiperidin-3-yl)isoindoline-1,3-dione]
10 to 100 nM	< 10 nM	30 to 60%	< 30%	Cc1nc2ccc(-c3ccnc(N)c3)nc2n1-c1ccc(N2CCN(CCOCCOCCC(=O)N3CCN(Cc4ccc(CNc5cccc6c5CN(C5CCC(=O)NC5=O)C6=O)cc4)CC3)CC2)c(F)c1 (stereo not shown) [Compound 10, 3-(4-((4-((4-(3-(2-(2-(4-(4-(5-(2-aminopyridin-4-yl)-2-methyl-3H-imidazo[4,5-b]pyridin-3-yl)-2-fluorophenyl)piperazin-1-yl)ethoxy)ethoxy)propanoyl)piperazin-1-yl)methyl)benzyl)amino)-1-oxoisoindolin-2-yl)piperidine-2,6-dione]
< 10 nM	< 10 nM	30 to 60%	30 to 50%	Cc1nc2ccc(-c3ccnc(N)c3)nc2n1-c1ccc(N2CCN(CCOCCOCCOCCOCCNc3cccc4c3C(=O)N(C3CCC(=O)NC3=O)C4=O)CC2)c(F)c1 (stereo not shown) [Compound 7, 4-((14-(4-(4-(5-(2-aminopyridin-4-yl)-2-methyl-3H-imidazo[4,5-b]pyridin-3-yl)-2-fluorophenyl)piperazin-1-yl)-3,6,9,12-tetraoxatetradecyl)amino)-2-(2,6-dioxopiperidin-3-yl)isoindoline-1,3-dione, N,N-Diisopropylethylamine]
10 to 100 nM	< 10 nM	30 to 60%	< 30%	Cc1nc2ccc(-c3ccnc(N)c3)nc2n1-c1ccc(N2C[C@@H]3C[C@H]2CN3CC#Cc2ccc(N3CCC(C(=O)N4CCC(n5cc(CNc6cccc7c6C(=O)N(C6CCC(=O)NC6=O)C7=O)cn5)CC4)CC3)nc2)c(F)c1 (stereo partly drawn) [Compound 20, 4-(((1-(1-(1-(5-(3-((1S,4S)-5-(4-(5-(2-aminopyridin-4-yl)-2-methyl-3H-imidazo[4,5-b]pyridin-3-yl)-2-fluorophenyl)-2,5-diazabicyclo[2.2.1]heptan-2-yl)prop-1-yn-1-yl)pyridin-2-yl)piperidine-4-carbonyl)piperidin-4-yl)-1H-pyrazol-4-yl)methyl)amino)-2-(2,6-dioxopiperidin-3-yl)isoindoline-1,3-dione]
